Laboratory results: ChEMBL document CHEMBL4152336, “Optimization of the first small-molecule relaxin/insulin-like family peptide receptor (RXFP1) agonists: Activation results in an antifibrotic gene expression profile” (Eur J Med Chem, 2018)
Values after ≈ are worked out from the molar mass of the structure shown. Active and inactive are the calls of the source. No cut-off for these calls is given here.

Assays:
Homo sapiens [1] = organism: Homo sapiens; assay: Down regulation of COL1A1 gene expression in human HSC at 5 uM after 24 to 72 hrs by RT-qPCR analysis; type: functional
Mus musculus [2] = assay: Toxicity in C57/BL6 mouse assessed as body weight at 90 mg/kg, po treated for 5 days measured at day 7 post last dose (reference value: 20.6 +/- 2.9 g); type: organism-based; conditions: in vivo, 120 h
Mus musculus [3] = assay: Toxicity in C57/BL6 mouse assessed as body weight at 90 mg/kg, po treated for 5 days measured at day 9 post last dose (reference value: 20.7 +/- 2.9 g); type: organism-based; conditions: in vivo, 120 h
Mus musculus [4] = assay: Toxicity in C57/BL6 mouse assessed as body weight at 90 mg/kg, po treated for 5 days measured at day 4 post last dose (reference value: 20.1 +/- 2.8 g); type: organism-based; conditions: in vivo, 120 h
[5] = Drug level in C57/BL6 mouse heart at 3 mg/kg, iv after 7 hrs; type: ADME, organism-based; conditions: in vivo
Mus musculus [6] = assay: Toxicity in C57/BL6 mouse assessed as body weight at 3000 mg/kg, po treated for 5 days measured at day 6 post last dose (reference value: 20.6 +/- 2.6 g); type: organism-based; conditions: in vivo, 120 h
Mus musculus [7] = assay: Toxicity in C57/BL6 mouse assessed as body weight at 3000 mg/kg, po treated for 5 days measured at day 2 post last dose (reference value: 19.8 +/- 2.3 g); type: organism-based; conditions: in vivo, 120 h
Mus musculus [8] = assay: Toxicity in C57/BL6 mouse assessed as body weight at 3000 mg/kg, po treated for 5 days measured at day 5 post last dose (reference value: 20.3 +/- 2.8 g); type: organism-based; conditions: in vivo, 120 h
Mus musculus [9] = assay: Toxicity in C57/BL6 mouse assessed as body weight at 3000 mg/kg, po treated for 5 days measured at day 10 post last dose (reference value: 20.7 +/- 2.6 g); type: organism-based; conditions: in vivo, 120 h
[10] = Drug level in C57/BL6 mouse heart at 3 mg/kg, iv after 1 hr; type: ADME, organism-based; conditions: in vivo
[11] = Aqueous kinetic solubility of the compound in PBS by shake-flask method; type: physicochemical; conditions: PBS; read-out: Kinetic_solubility
[12] = Drug level in C57/BL6 mouse heart at 30 mg/kg, po after 2 hrs; type: ADME, organism-based; conditions: in vivo
Mus musculus [13] = assay: Toxicity in C57/BL6 mouse assessed as body weight at 90 mg/kg, po treated for 5 days measured at day 2 post last dose (reference value: 19.8 +/- 2.3 g); type: organism-based; conditions: in vivo, 120 h
Mus musculus [14] = assay: Toxicity in C57/BL6 mouse assessed as abnormal behavior at 3 to 30 mg/kg, iv; type: organism-based; conditions: in vivo
[15] = Drug level in C57/BL6 mouse heart at 3 mg/kg, iv after 3 hrs; type: ADME, organism-based; conditions: in vivo
Mus musculus [16] = assay: Toxicity in C57/BL6 mouse assessed as body weight at 3000 mg/kg, po treated for 5 days measured at day 8 post last dose (reference value: 20.6 +/- 2.8 g); type: organism-based; conditions: in vivo, 120 h
Mus musculus [17] = assay: Toxicity in C57/BL6 mouse assessed as body weight at 90 mg/kg, po treated for 5 days measured at day 3 post last dose (reference value: 19.8 +/- 2.5 g); type: organism-based; conditions: in vivo, 120 h
Homo sapiens [18] = organism: Homo sapiens; assay: Down regulation of TGFB1 gene expression in human HSC at 5 uM after 24 to 72 hrs by RT-qPCR analysis; type: functional
Mus musculus [19] = assay: Toxicity in C57/BL6 mouse assessed as body weight at 3000 mg/kg, po treated for 5 days measured at day 3 post last dose (reference value: 19.8 +/- 2.5 g); type: organism-based; conditions: in vivo, 120 h
[20] = Drug level in C57/BL6 mouse heart at 30 mg/kg, po after 1.5 hr; type: ADME, organism-based; conditions: in vivo
Mus musculus [21] = assay: Toxicity in C57/BL6 mouse assessed as body weight at 300 mg/kg, po treated for 5 days measured at day 4 post last dose (reference value: 20.1 +/- 2.8 g); type: organism-based; conditions: in vivo, 120 h
[22] = Drug level in C57/BL6 mouse heart at 3 mg/kg, iv after 0.5 hrs; type: ADME, organism-based; conditions: in vivo
Homo sapiens [23] = organism: Homo sapiens; assay: Down regulation of ACTA2 gene expression in human HSC at 5 uM after 24 to 72 hrs by RT-qPCR analysis; type: functional
Mus musculus [24] = assay: Toxicity in C57/BL6 mouse at 3 to 30 mg/kg, po; type: organism-based; conditions: in vivo
Mus musculus [25] = assay: Toxicity in C57/BL6 mouse assessed as body weight at 90 mg/kg, po treated for 5 days measured at day 5 post last dose (reference value: 20.3 +/- 2.8 g); type: organism-based; conditions: in vivo, 120 h
Homo sapiens [26] = organism: Homo sapiens; assay: Down regulation of CTGF gene expression in human HSC at 5 uM after 24 to 72 hrs by RT-qPCR analysis; type: functional
[27] = Drug level in C57/BL6 mouse heart at 3 mg/kg, iv after 24 hrs; type: ADME, organism-based; conditions: in vivo
Mus musculus [28] = assay: Toxicity in C57/BL6 mouse at 3 to 30 mg/kg, iv; type: organism-based; conditions: in vivo
[29] = Drug level in C57/BL6 mouse heart at 3 mg/kg, iv after 2 hrs; type: ADME, organism-based; conditions: in vivo
Mus musculus [30] = assay: Toxicity in C57/BL6 mouse assessed as body weight at 90 mg/kg, po treated for 5 days measured at day 8 post last dose (reference value: 20.6 +/- 2.8 g); type: organism-based; conditions: in vivo, 120 h
[31] = Drug level in C57/BL6 mouse heart at 3 mg/kg, iv after 0.08 hrs; type: ADME, organism-based; conditions: in vivo
[32] = Drug level in C57/BL6 mouse heart at 3 mg/kg, iv after 0.25 hrs; type: ADME, organism-based; conditions: in vivo
Homo sapiens [33] = organism: Homo sapiens; assay: Upregulation of PPARGC1A gene expression in human HSC at 5 uM after 24 to 72 hrs by RT-qPCR analysis; type: functional
Homo sapiens [34] = organism: Homo sapiens; assay: Upregulation of MMP1 gene expression in human HSC at 5 uM after 24 to 72 hrs by RT-qPCR analysis; type: functional
Mus musculus [35] = assay: Toxicity in C57/BL6 mouse assessed as body weight at 300 mg/kg, po treated for 5 days measured at day 6 post last dose (reference value: 20.6 +/- 2.6 g); type: organism-based; conditions: in vivo, 120 h
Mus musculus [36] = assay: Toxicity in C57/BL6 mouse assessed as body weight at 3000 mg/kg, po treated for 5 days measured at day 4 post last dose (reference value: 20.1 +/- 2.8 g); type: organism-based; conditions: in vivo, 120 h
Mus musculus [37] = assay: Toxicity in C57/BL6 mouse assessed as body weight at 3000 mg/kg, po treated for 5 days measured at day 9 post last dose (reference value: 20.7 +/- 2.9 g); type: organism-based; conditions: in vivo, 120 h
Mus musculus [38] = assay: Toxicity in C57/BL6 mouse assessed as body weight at 90 mg/kg, po treated for 5 days measured at day 10 post last dose (reference value: 20.7 +/- 2.6 g); type: organism-based; conditions: in vivo, 120 h
Mus musculus [39] = assay: Toxicity in C57/BL6 mouse assessed as body weight at 300 mg/kg, po treated for 5 days measured at day 7 post last dose (reference value: 20.6 +/- 2.9 g); type: organism-based; conditions: in vivo, 120 h
Mus musculus [40] = assay: Toxicity in C57/BL6 mouse assessed as body weight at 90 mg/kg, po treated for 5 days measured at day 6 post last dose (reference value: 20.6 +/- 2.6 g); type: organism-based; conditions: in vivo, 120 h
Mus musculus [41] = assay: Toxicity in C57/BL6 mouse assessed as body weight at 300 mg/kg, po treated for 5 days measured at day 2 post last dose (reference value: 19.8 +/- 2.3 g); type: organism-based; conditions: in vivo, 120 h
[42] = Drug level in C57/BL6 mouse heart at 30 mg/kg, po after 7 hrs; type: ADME, organism-based; conditions: in vivo

## CC(C)Oc1ccccc1C(=O)Nc1ccccc1C(=O)Nc1cccc(S(=O)(=O)C(F)(F)F)c1
Homo sapiens [1]
  Activity: Active
Mus musculus [2]
  Activity: 20.4 g
Mus musculus [3]
  Activity: 20.8 g
Mus musculus [4]
  Activity: 20 g
[5]
  Drug uptake: 0.394 µmol/kg
Mus musculus [6]
  Activity: 21.1 g
Mus musculus [7]
  Activity: 20.6 g
Mus musculus [8]
  Activity: 20.8 g
Mus musculus [9]
  Activity: 21.3 g
[10]
  Drug uptake: 1.395 µmol/kg
[11]
  solubility kinetic: 7 µM (≈ 3.55 µg/mL)
[12]
  Drug uptake: 1.016 µmol/kg
Mus musculus [13]
  Activity: 19.9 g
Mus musculus [14]
  Activity: Non-Toxic
[15]
  Drug uptake: 0.6 µmol/kg
Mus musculus [16]
  Activity: 21.1 g
Mus musculus [17]
  Activity: 19.9 g
Homo sapiens [18]
  Activity: Active
Mus musculus [19]
  Activity: 20.6 g
[20]
  Drug uptake: 2.026 µmol/kg
Mus musculus [21]
  Activity: 20.4 g
[22]
  Drug uptake: 2.001 µmol/kg
Homo sapiens [23]
  Activity: Active
Mus musculus [24]
  Activity: Non-Toxic
Mus musculus [25]
  Activity: 20 g
Homo sapiens [26]
  Activity: Active
[27]
  Drug uptake: 0.109 µmol/kg
Mus musculus [28]
  Activity: Non-Toxic
[29]
  Drug uptake: 1.206 µmol/kg
Mus musculus [30]
  Activity: 20.6 g
[31]
  Drug uptake: 4.12 µmol/kg
[32]
  Drug uptake: 2.084 µmol/kg
Homo sapiens [33]
  Activity: Active
Homo sapiens [34]
  Activity: Active
Mus musculus [35]
  Activity: 20.8 g
Mus musculus [36]
  Activity: 20.7 g
Mus musculus [37]
  Activity: 21.2 g
Mus musculus [38]
  Activity: 20.8 g
Mus musculus [39]
  Activity: 20.9 g
Mus musculus [40]
  Activity: 20.4 g
Mus musculus [41]
  Activity: 20.1 g
[42]
  Drug uptake: 0.067 µmol/kg
